# Results as given in patent US20150178471A1, “IMPROVED CLINICAL EFFECT OF PHARMACEUTICAL PRODUCTS USING COMMUNICATION TOOL AND LIFE-STYLE FACTORS” (SCIENTIFICMED SWEDEN AB, priority 2012, published 2015).
# Details: no combination product
# Text: Development and test of a combination product based on the pharmaceutical Zoloft and a specifically adapted QFM, including life-style improving factors, with a dependent software application • a. Test objectives; improve cardiovascular and diabetes symptoms • b. Main intervention factors; • i. an improved level of physical activity • ii. increased awareness of food intake • iii. an increased well-being based on improved administration of Zoloft • c. Follow-up variables: Weight and HbA1c • d. Period of Time Using the Combination Product: Five Months. • e. Period of time using only the pharmaceutical, i.e. no combination product, prior to the period of using the combination product: Two months • f. Period of time using only the software application, i.e. no combination product, after the period of using the combination product: Two weeks
# The used set of questions for the specific QFM, including life-style improving factors, in the combination product based on Zoloft was the following: • Adherence to Zoloft: • The patient was asked to answer a question whether or not he/she had been adherent to Zoloft, and which dose the patient had taken; “I have taken my Zoloft today with the dose 25 mg/50 mg/100 mg/150 mg or 200 mg”. • Physical activity: • The patient was asked initially to set up an individual goal with the purpose of achieving an increased effect. […]
structure (smiles),measurement,setting,value
"CN[C@H]1CC[C@@H](c2ccc(Cl)c(Cl)c2)c2ccccc21 [Zoloft, Sertralin]",HbA1c,test period when the patient only was taking Zoloft (two months),remained stable or slightly increased
same,Weight gained,test period when the patient only was taking Zoloft,1-2%
